Assay results from patent publication US11413279B2, “Methods and compositions for the antiviral use of synthetic lysine analogs and mimetics” (priority 2017, dated 2022).
Values joined by “and” are separate entries in the source; they are usually repeats but may differ in a detail not shown here. Identical values can stand only once. Like-named read-outs stand apart in the source and are kept apart here.

Assays:
[1] = system: Herpes Simplex Virus Type 1 (HSV-1); assay type: cell-based
Method: (§1) Contact time for each sample was 48±2 hours and Log10 titer reductions were generated using the input viral titer (Log10TCID50) and the output viral titer (Log10TCID50).
The plate was incubated for 48±2 hours at 36±2° C. with 5±3% CO2. The plate was then frozen at −60 to −90° C., thawed, and the contents of each well centrifuged at 2,000 RPM for 10 minutes. The supernatant from each well was collected and assayed for infectious virus.
as §1

[2] = system: Herpes Simplex Virus Type 1 (HSV-1); assay: Antiviral activity of tranexamic acid/L-arginine against HSV-1; assay type: cell-based; conditions: for Output Viral Titer (Log10TCID50) / Titer (Log10TCID50/mL) / Viral Reduction (%) / Viral Promotion (%): contact time 48 ± 8 hours; for Log10 Titer Difference: vs input virus control average 6.39
[3] = system: Herpes Simplex Virus Type 2 (HSV-2); assay: Antiviral activity of tranexamic acid/L-arginine against HSV-2; assay type: cell-based; conditions: contact time 48 ± 8 hours
[4] = system: recurrent outbreaks of cold sores; assay: Topical treatment and prophylactic use in human subjects with recurrent cold sores; assay type: in vivo
[5] = system: Herpes Simplex Virus Type 1 (HSV-1); conditions: contact time 48 ± 8 hours
[6] = system: Herpes Simplex Virus Type 2 (HSV-2); conditions: contact time 48 ± 8 hours
[7] = system: cell medium used for HSV-1 and HSV-2; assay: Cytotoxicity limit in the cell medium used for HSV-1 and HSV-2
[8] = 2% (w/v) tranexamic acid alone, listed as tranexamic acid
[9] = tranexamic acid 0.5% (w/v), high virus inocula
[10] = tranexamic acid 0.5% (w/v), low virus inocula
[11] = tranexamic acid 0.5% (w/v), low virus inocula, listed as tranexamic acid
[12] = tranexamic acid 1.0% (w/v), high virus inocula
[13] = tranexamic acid 1.0% (w/v), high virus inocula, listed as tranexamic acid
[14] = tranexamic acid 1.0% (w/v), low virus inocula
[15] = tranexamic acid 1.0% (w/v), low virus inocula, listed as tranexamic acid
[16] = tranexamic acid 2.0% (w/v), high virus inocula
[17] = 5,000 μM L-arginine alone, listed as L-arginine
[18] = 10,000 μM L-arginine alone, listed as L-arginine

NC[C@H]1CC[C@H](C(=O)O)CC1 [Tranexamic Acid (TA)]
Output Viral Titer (Log10TCID50) ([1]; 2% (w/v) tranexamic acid, HSV-1, contact time 48 ± 2 hours, 3 replicates): 7.15 Log10TCID50 and 7.21 Log10TCID50 and 7.27 Log10TCID50 | Log10 Titer Reduction ([1]; 2% (w/v) tranexamic acid, HSV-1, contact time 48 ± 2 hours, input viral titer 8.50, 3 replicates): 1.35 Log10 and 1.29 Log10 and 1.23 Log10

NC[C@H]1CC[C@H](C(=O)O)CC1 [Tranexamic Acid, tranexamic acid]
Output Viral Titer (Log10TCID50) ([2]; 2% (w/v) tranexamic acid alone): 5.30 Log10TCID50 and 5.12 Log10TCID50 | Titer (Log10TCID50/mL) ([2]; 2% (w/v) tranexamic acid alone): 5.24 ± 0.08 Log10TCID50/mL and 5.30 ± 0.10 Log10TCID50/mL and 5.12 ± 0.10 Log10TCID50/mL | Viral Reduction (%) ([2]; 2% (w/v) tranexamic acid alone): 93% and 92% and 95% | Viral Reduction (%) [2, 8]: 95% | Log10 Titer Difference ([2]; 2% (w/v) tranexamic acid alone): −1.15 Log10 and −1.09 Log10 and −1.27 Log10 | Viral Reduction (%) ([3]; 2% (w/v) tranexamic acid alone): 99.6% and 99.7% and 99.3% | Viral Reduction (%) [3, 8]: 99.7% | Titer (Log10TCID50/mL) [1]: 7.15 ± 0.08 Log10TCID50/mL and 7.21 ± 0.06 Log10TCID50/mL and 7.27 ± 0.00 Log10TCID50/mL | Log10 titer reduction (peak of replicates) ([1]; 2% (w/v) tranexamic acid alone, vs input virus control average): 1.29 Log10 | outcome of cold sore outbreak ([4]; fourth subject, 10% (w/v) tranexamic acid topically a single time at onset): the following morning the blister was gone and the outbreak had ceased | cold sore outbreaks during the year ([4]; one subject, 3 or 10% (w/v) tranexamic acid applied to face daily for approximately one year, usual experience 3 to 5 outbreaks): one | time until cold sore had healed to only a small red spot ([4]; person, approximately 0.25 mL aqueous solution of 5% (w/v) tranexamic acid by swab, 5 times over 36 hours): ≤ 36 h | time until symptoms of the outbreak resolved ([4]; three human subjects, 3% (w/v) tranexamic acid topically several times a day from beginning of outbreak, usual duration about 2 weeks): ≤ 48 h | Output Viral Titer (Log10TCID50) [5, 9]: 6.19 Log10TCID50 and 6.43 Log10TCID50 and 6.37 Log10TCID50 | Reduction (%) [5, 9]: 45.9% | Titer (Log10TCID50/mL) [5, 9]: 6.19 ± 0.08 Log10TCID50/mL and 6.43 ± 0.13 Log10TCID50/mL and 6.37 ± 0.11 Log10TCID50/mL | Output Viral Titer (Log10TCID50) [5, 10]: 5.24 Log10TCID50 and 5.54 Log10TCID50 | Reduction (%) [5, 10]: 62.9% and 90.5% and 81.0% | Reduction (%) [5, 11]: 90.5% | Output Viral Titer (Log10TCID50) [5, 12]: 6.43 Log10TCID50 and 6.61 Log10TCID50 | Titer (Log10TCID50/mL) [5, 12]: 6.43 ± 0.12 Log10TCID50/mL and 6.61 ± 0.11 Log10TCID50/mL and 6.43 ± 0.13 Log10TCID50/mL | Reduction (%) [5, 13]: 5.9% | Output Viral Titer (Log10TCID50) [5, 14]: 4.34 Log10TCID50 | Reduction (%) [5, 14]: 97.9% and 98.8% and 75.5% | Reduction (%) [5, 15]: 98.8% | Output Viral Titer (Log10TCID50) [5, 16]: 5.71 Log10TCID50 and 5.42 Log10TCID50 | Reduction (%) [5, 16]: 82.1% and 90.8% | Titer (Log10TCID50/mL) [5, 16]: 5.71 ± 0.12 Log10TCID50/mL and 5.42 ± 0.06 Log10TCID50/mL | Reduction (%) ([5]; tranexamic acid 2.0% (w/v), high virus inocula, listed as tranexamic acid): 90.8% | Reduction (%) [6, 9]: 52.85% | Output Viral Titer (Log10TCID50) [6, 10]: 5.77 Log10TCID50 and 5.71 Log10TCID50 | Reduction (%) [6, 10]: 78.94% and 64.24% and 68.85% | Titer (Log10TCID50/mL) [6, 10]: 5.54 ± 0.09 Log10TCID50/mL and 5.77 ± 0.10 Log10TCID50/mL and 5.71 ± 0.08 Log10TCID50/mL | Reduction (%) [6, 11]: 78.94% | Output Viral Titer (Log10TCID50) [6, 12]: 7.62 Log10TCID50 and 7.44 Log10TCID50 and 7.38 Log10TCID50 | Reduction (%) [6, 12]: 37.85% and 58.94% and 64.24% | Titer (Log10TCID50/mL) [6, 12]: 7.62 ± 0.08 Log10TCID50/mL and 7.44 ± 0.11 Log10TCID50/mL and 7.38 ± 0.10 Log10TCID50/mL | Reduction (%) [6, 13]: 64.24% | Output Viral Titer (Log10TCID50) [6, 14]: 5.60 Log10TCID50 and 5.83 Log10TCID50 and 5.89 Log10TCID50 | Reduction (%) [6, 14]: 75.82% and 58.94% and 52.85% | Titer (Log10TCID50/mL) [6, 14]: 5.89 ± 0.10 Log10TCID50/mL and 5.60 ± 0.09 Log10TCID50/mL and 5.83 ± 0.08 Log10TCID50/mL | Reduction (%) [6, 15]: 75.82% | Reduction (%) [6, 16]: 99.98% and 99.85% | maximum concentration that could be used without cytotoxicity [7]: 2 % (w/v)

N[C@@H](Cc1c[nH]cn1)C(=O)O [L-Histidine, L-histidine]
Titer (Log10TCID50/mL) ([1]; 0.5 mM L-histidine alone, contact time 48 ± 2 hours): 8.46 ± 0.09 Log10TCID50/mL and 8.76 ± 0.06 Log10TCID50/mL and 8.76 ± 0.10 Log10TCID50/mL | Log10 titer reduction (peak of replicates) ([1]; 0.5 mM L-histidine alone, vs input virus control average): 0.04 Log10 | Output Viral Titer (Log10TCID50) ([1]; 0.5 mM L-histidine, HSV-1, contact time 48 ± 2 hours, 3 replicates): 8.46 Log10TCID50 and 8.76 Log10TCID50 (2×) | Titer (Log10TCID50/mL) ([1]; 1 mM L-histidine alone, contact time 48 ± 2 hours): 8.70 ± 0.11 Log10TCID50/mL and 8.40 ± 0.11 Log10TCID50/mL | Log10 titer reduction (peak of replicates) ([1]; 1 mM L-histidine alone, vs input virus control average): 0.10 Log10 | Output Viral Titer (Log10TCID50) ([1]; 1 mM L-histidine, HSV-1, contact time 48 ± 2 hours, 3 replicates): 8.76 Log10TCID50 and 8.70 Log10TCID50 and 8.40 Log10TCID50 | Titer (Log10TCID50/mL) ([1]; 5 mM L-histidine alone, contact time 48 ± 2 hours): 8.52 ± 0.10 Log10TCID50/mL and 8.82 ± 0.08 Log10TCID50/mL and 8.64 ± 0.06 Log10TCID50/mL | Log10 Titer Reduction ([1]; 5 mM L-histidine alone, vs input virus control average): no Log10 titer reduction | Output Viral Titer (Log10TCID50) ([1]; 5 mM L-histidine, HSV-1, contact time 48 ± 2 hours, 3 replicates): 8.52 Log10TCID50 and 8.82 Log10TCID50 and 8.64 Log10TCID50 | Log10 Titer Reduction ([1]; 5 mM L-histidine, HSV-1, contact time 48 ± 2 hours, input viral titer 8.50, 3 replicates): No reduction | Titer (Log10TCID50/mL) ([1]; 10 mM L-histidine alone, contact time 48 ± 2 hours): 8.70 ± 0.00 Log10TCID50/mL and 8.64 ± 0.06 Log10TCID50/mL | Log10 Titer Reduction ([1]; 10 mM L-histidine alone, vs input virus control average): no Log10 titer reduction | Output Viral Titer (Log10TCID50) ([1]; 10 mM L-histidine, HSV-1, contact time 48 ± 2 hours, 3 replicates): 8.70 Log10TCID50 and 8.64 Log10TCID50 (2×) | Log10 Titer Reduction ([1]; 10 mM L-histidine, HSV-1, contact time 48 ± 2 hours, input viral titer 8.50, 3 replicates): No reduction | Titer (Log10TCID50/mL) ([1]; 25 mM L-histidine alone, contact time 48 ± 2 hours): 8.64 ± 0.10 Log10TCID50/mL and 8.52 ± 0.12 Log10TCID50/mL and 8.70 ± 0.00 Log10TCID50/mL

N=C(N)NCCC[C@H](N)C(=O)O [L-Arginine, L-arginine]
Viral Promotion (%) [2, 17]: 54% | Output Viral Titer (Log10TCID50) ([2]; 10,000 μM L-arginine alone): 7.21 Log10TCID50 and 7.09 Log10TCID50 and 7.15 Log10TCID50 | Titer (Log10TCID50/mL) ([2]; 10,000 μM L-arginine alone): 7.21 ± 0.06 Log10TCID50/mL and 7.09 ± 0.09 Log10TCID50/mL and 7.15 ± 0.08 Log10TCID50/mL | Viral Promotion (%) ([2]; 10,000 μM L-arginine alone): 85% and 80% and 83% | Viral Promotion (%) [2, 18]: 85% | Log10 Titer Difference ([2]; 10,000 μM L-arginine alone): 0.82 Log10 and 0.70 Log10 and 0.76 Log10 | Viral Promotion (%) ([2]; 25,000 μM L-arginine alone): 85% and 74% and 65% | Viral Promotion (%) ([2]; 25,000 μM L-arginine alone, listed as L-arginine): 85% | Viral Promotion (%) ([3]; 5,000 μM L-arginine alone): 44% and 76% | Viral Reduction (%) ([3]; 5,000 μM L-arginine alone): 32% | Viral Promotion (%) [3, 17]: 76% | Viral Promotion (%) [3, 18]: 76% | Viral Promotion (%) ([3]; 25,000 μM L-arginine alone): 3% | Viral Reduction (%) ([3]; 25,000 μM L-arginine alone): 66% | Log10 titer reduction (peak of replicates) ([1]; 0.5 mM L-arginine alone, vs input virus control average): 0.28 Log10 | Log10 titer reduction (peak of replicates) ([1]; 2 mM L-arginine alone, vs input virus control average): 0.04 Log10 | Log10 Titer Reduction ([1]; 5 mM L-arginine alone, vs input virus control average): no Log10 titer reduction | Log10 Titer Reduction ([1]; 5 mM L-arginine, HSV-1, contact time 48 ± 2 hours, input viral titer 8.50, 3 replicates): No reduction
